# Measurements as given in paper PMC6409085, “Three odorant-binding proteins are involved in the behavioral response of Sogatella furcifera to rice plant volatiles” (PeerJ, 2019).
# Values joined by “and” are separate entries in the source; they are usually repeats but may differ in a detail not shown here. Equal entries are not always repeated.
# Experiments:
# S. furcifera adults = experiment: Y-tube olfactometer behavioral trials; format: in vivo, Sogatella furcifera; details: odorant 50 µL/L vs hexane; adults
# Method in brief: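 Single S. furcifera adults (2 days post-emergence, starved 0.5 h) chose between odorant (100 µL of 50 µL/L on filter paper) and hexane control in a glass Y-tube, charcoal-filtered humidified air 300 mL/min per arm, 25 ± 1 °C, 50% RH. Choice scored if insect passed half an arm and stayed >1 min within 10 min; 45 insects per compound, chi-squared test.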
# SfurOBP2 = SfurOBP2 (Sogatella furcifera, UniProt V5T759); experiment: biochemical; format: binding
# Sequence of SfurOBP2 (V5T759 entry or part of it): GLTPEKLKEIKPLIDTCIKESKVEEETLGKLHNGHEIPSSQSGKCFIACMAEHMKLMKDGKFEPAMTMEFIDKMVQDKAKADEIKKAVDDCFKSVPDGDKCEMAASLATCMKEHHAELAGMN
# Method in brief: (§1)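 K1-NPN came from titrating 2.0 µM protein (50 mM Tris-HCl, pH 7.4) with 1-NPN. Odorants at 2-20 µM then competed against 2.0 µM protein plus 2.0 µM 1-NPN for 2 min, with excitation at 337 nm and emission recorded over 390-490 nm. IC50 values were converted to Ki via Ki = IC50/(1 + [1-NPN]/K1-NPN).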
# SfurOBP3 = SfurOBP3 (Sogatella furcifera, UniProt V5T818); experiment: biochemical; format: binding; details: for Fluorescence competitive binding assay, fluorescence intensity: OBP3, three replicate columns
# Sequence of SfurOBP3 (V5T818 entry or part of it): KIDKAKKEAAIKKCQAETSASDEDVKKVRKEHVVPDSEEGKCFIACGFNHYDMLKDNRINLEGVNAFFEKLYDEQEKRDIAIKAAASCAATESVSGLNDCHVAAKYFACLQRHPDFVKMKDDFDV
# Method in brief: as §1
# SfurOBP11 = SfurOBP11 (Sogatella furcifera, UniProt V5T6E3); experiment: biochemical; format: binding
# Sequence of SfurOBP11 (V5T6E3 entry or part of it): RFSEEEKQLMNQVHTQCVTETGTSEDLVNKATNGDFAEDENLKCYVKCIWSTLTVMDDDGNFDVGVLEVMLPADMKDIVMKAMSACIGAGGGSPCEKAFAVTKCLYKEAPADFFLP
# Method in brief: as §1
# SfurOBP1 = SfurOBP1 (Sogatella furcifera, UniProt V5T8N5); experiment: biochemical; format: binding; details: for Fluorescence competitive binding assay, fluorescence intensity: OBP1, three replicate columns
# Sequence of SfurOBP1 (V5T8N5 entry or part of it): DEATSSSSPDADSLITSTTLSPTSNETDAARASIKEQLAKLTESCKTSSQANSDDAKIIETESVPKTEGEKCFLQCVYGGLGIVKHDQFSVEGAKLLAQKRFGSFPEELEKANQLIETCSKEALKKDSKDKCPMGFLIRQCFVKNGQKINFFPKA
# Method in brief: as §1
smiles,measurement,setting,value
CCCCCCCCCCCCCC [n-tetradecane],number of insects choosing hexane arm,S. furcifera adults,13
same,number of insects choosing volatilies arm,S. furcifera adults,14
same,number of insects failed (no choice),S. furcifera adults,13
same,IC50,"SfurOBP2; SfurOBP2, protein and 1-NPN both 2.0 µM, competitor 2-20 µM, read-out: IC50",> 20 µM
same,"Fluorescence competitive binding assay, OBP2 (raw fluorescence reading)","SfurOBP2; ligand concentration 2 (unit not given), replicate column 1 of 3",17681
same,"Fluorescence competitive binding assay, OBP2 (raw fluorescence reading)","SfurOBP2; ligand concentration 2 (unit not given), replicate column 2 of 3",15844
same,"Fluorescence competitive binding assay, OBP2 (raw fluorescence reading)","SfurOBP2; ligand concentration 2 (unit not given), replicate column 3 of 3",16950
same,"Fluorescence competitive binding assay, OBP2 (raw fluorescence reading)","SfurOBP2; ligand concentration 4 (unit not given), replicate column 1 of 3",17519
same,"Fluorescence competitive binding assay, OBP2 (raw fluorescence reading)","SfurOBP2; ligand concentration 4 (unit not given), replicate column 2 of 3",20288
same,"Fluorescence competitive binding assay, OBP2 (raw fluorescence reading)","SfurOBP2; ligand concentration 4 (unit not given), replicate column 3 of 3",20488
same,"Fluorescence competitive binding assay, OBP2 (raw fluorescence reading)","SfurOBP2; ligand concentration 6 (unit not given), replicate column 1 of 3",19784
same,"Fluorescence competitive binding assay, OBP2 (raw fluorescence reading)","SfurOBP2; ligand concentration 6 (unit not given), replicate column 2 of 3",21064
same,"Fluorescence competitive binding assay, OBP2 (raw fluorescence reading)","SfurOBP2; ligand concentration 6 (unit not given), replicate column 3 of 3",19193
same,"Fluorescence competitive binding assay, OBP2 (raw fluorescence reading)","SfurOBP2; ligand concentration 8 (unit not given), replicate column 1 of 3",20311
same,"Fluorescence competitive binding assay, OBP2 (raw fluorescence reading)","SfurOBP2; ligand concentration 8 (unit not given), replicate column 2 of 3",19912
same,"Fluorescence competitive binding assay, OBP2 (raw fluorescence reading)","SfurOBP2; ligand concentration 8 (unit not given), replicate column 3 of 3",20694
same,"Fluorescence competitive binding assay, OBP2 (raw fluorescence reading)","SfurOBP2; ligand concentration 10 (unit not given), replicate column 1 of 3",21153
same,"Fluorescence competitive binding assay, OBP2 (raw fluorescence reading)","SfurOBP2; ligand concentration 10 (unit not given), replicate column 2 of 3",20155
same,"Fluorescence competitive binding assay, OBP2 (raw fluorescence reading)","SfurOBP2; ligand concentration 10 (unit not given), replicate column 3 of 3",21164
same,"Fluorescence competitive binding assay, OBP2 (raw fluorescence reading)","SfurOBP2; ligand concentration 12 (unit not given), replicate column 1 of 3",17882
same,"Fluorescence competitive binding assay, OBP2 (raw fluorescence reading)","SfurOBP2; ligand concentration 12 (unit not given), replicate column 2 of 3",20189
same,"Fluorescence competitive binding assay, OBP2 (raw fluorescence reading)","SfurOBP2; ligand concentration 12 (unit not given), replicate column 3 of 3",20719
same,"Fluorescence competitive binding assay, OBP2 (raw fluorescence reading)","SfurOBP2; ligand concentration 14 (unit not given), replicate column 1 of 3",19553
same,"Fluorescence competitive binding assay, OBP2 (raw fluorescence reading)","SfurOBP2; ligand concentration 14 (unit not given), replicate column 2 of 3",20680
same,"Fluorescence competitive binding assay, OBP2 (raw fluorescence reading)","SfurOBP2; ligand concentration 14 (unit not given), replicate column 3 of 3",20531
same,"Fluorescence competitive binding assay, OBP2 (raw fluorescence reading)","SfurOBP2; ligand concentration 16 (unit not given), replicate column 1 of 3",20438
same,"Fluorescence competitive binding assay, OBP2 (raw fluorescence reading)","SfurOBP2; ligand concentration 16 (unit not given), replicate column 2 of 3",19246
same,"Fluorescence competitive binding assay, OBP2 (raw fluorescence reading)","SfurOBP2; ligand concentration 16 (unit not given), replicate column 3 of 3",20069
same,"Fluorescence competitive binding assay, OBP2 (raw fluorescence reading)","SfurOBP2; ligand concentration 18 (unit not given), replicate column 1 of 3",24630
same,"Fluorescence competitive binding assay, OBP2 (raw fluorescence reading)","SfurOBP2; ligand concentration 18 (unit not given), replicate column 2 of 3",24806
same,"Fluorescence competitive binding assay, OBP2 (raw fluorescence reading)","SfurOBP2; ligand concentration 18 (unit not given), replicate column 3 of 3",23381
same,"Fluorescence competitive binding assay, OBP2 (raw fluorescence reading)","SfurOBP2; ligand concentration 20 (unit not given), replicate column 1 of 3",26164
same,"Fluorescence competitive binding assay, OBP2 (raw fluorescence reading)","SfurOBP2; ligand concentration 20 (unit not given), replicate column 2 of 3",20955
same,"Fluorescence competitive binding assay, OBP2 (raw fluorescence reading)","SfurOBP2; ligand concentration 20 (unit not given), replicate column 3 of 3",19728
same,"Fluorescence competitive binding assay, fluorescence intensity",SfurOBP3; ligand concentration 2,83183 and 87404 and 88774
same,"Fluorescence competitive binding assay, fluorescence intensity",SfurOBP3; ligand concentration 4,91510 and 89708 and 93194
same,"Fluorescence competitive binding assay, fluorescence intensity",SfurOBP3; ligand concentration 6,97532 and 94447 and 95269
same,"Fluorescence competitive binding assay, fluorescence intensity",SfurOBP3; ligand concentration 8,93074 and 89520 and 89172
same,"Fluorescence competitive binding assay, fluorescence intensity",SfurOBP3; ligand concentration 10,92952 and 88800 and 85833
same,"Fluorescence competitive binding assay, fluorescence intensity",SfurOBP3; ligand concentration 12,87947 and 90919 and 89332
same,"Fluorescence competitive binding assay, fluorescence intensity",SfurOBP3; ligand concentration 14,86216 and 85989 and 89098
same,"Fluorescence competitive binding assay, fluorescence intensity",SfurOBP3; ligand concentration 16,77694 and 82013 and 80619
same,"Fluorescence competitive binding assay, fluorescence intensity",SfurOBP3; ligand concentration 18,91776 and 100406 and 90755
same,"Fluorescence competitive binding assay, fluorescence intensity",SfurOBP3; ligand concentration 20,89755 and 85247 and 85349
same,IC50,"SfurOBP3; SfurOBP3, protein and 1-NPN both 2.0 µM, competitor 2-20 µM, read-out: IC50",> 20 µM
same,IC50,"SfurOBP11; SfurOBP11, protein and 1-NPN both 2.0 µM, competitor 2-20 µM, read-out: IC50",> 20 µM
same,"Fluorescence intensity, fluorescence competitive binding assay, OBP11","SfurOBP11; ligand concentration 2, replicate 1",29943
same,"Fluorescence intensity, fluorescence competitive binding assay, OBP11","SfurOBP11; ligand concentration 2, replicate 2",27499
same,"Fluorescence intensity, fluorescence competitive binding assay, OBP11","SfurOBP11; ligand concentration 2, replicate 3",28054
same,"Fluorescence intensity, fluorescence competitive binding assay, OBP11","SfurOBP11; ligand concentration 4, replicate 1",30256
same,"Fluorescence intensity, fluorescence competitive binding assay, OBP11","SfurOBP11; ligand concentration 4, replicate 2",30866
same,"Fluorescence intensity, fluorescence competitive binding assay, OBP11","SfurOBP11; ligand concentration 4, replicate 3",29645
same,"Fluorescence intensity, fluorescence competitive binding assay, OBP11","SfurOBP11; ligand concentration 6, replicate 1",26462
same,"Fluorescence intensity, fluorescence competitive binding assay, OBP11","SfurOBP11; ligand concentration 6, replicate 2",29047
same,"Fluorescence intensity, fluorescence competitive binding assay, OBP11","SfurOBP11; ligand concentration 6, replicate 3",31220
same,"Fluorescence intensity, fluorescence competitive binding assay, OBP11","SfurOBP11; ligand concentration 8, replicate 1",26278
same,"Fluorescence intensity, fluorescence competitive binding assay, OBP11","SfurOBP11; ligand concentration 8, replicate 2",28884
same,"Fluorescence intensity, fluorescence competitive binding assay, OBP11","SfurOBP11; ligand concentration 8, replicate 3",31318
same,"Fluorescence intensity, fluorescence competitive binding assay, OBP11","SfurOBP11; ligand concentration 10, replicate 1",27323
same,"Fluorescence intensity, fluorescence competitive binding assay, OBP11","SfurOBP11; ligand concentration 10, replicate 2",28751
same,"Fluorescence intensity, fluorescence competitive binding assay, OBP11","SfurOBP11; ligand concentration 10, replicate 3",30741
same,"Fluorescence intensity, fluorescence competitive binding assay, OBP11","SfurOBP11; ligand concentration 12, replicate 1",30511
same,"Fluorescence intensity, fluorescence competitive binding assay, OBP11","SfurOBP11; ligand concentration 12, replicate 2",30637
same,"Fluorescence intensity, fluorescence competitive binding assay, OBP11","SfurOBP11; ligand concentration 12, replicate 3",30384
same,"Fluorescence intensity, fluorescence competitive binding assay, OBP11","SfurOBP11; ligand concentration 14, replicate 1",29980
same,"Fluorescence intensity, fluorescence competitive binding assay, OBP11","SfurOBP11; ligand concentration 14, replicate 2",30187
same,"Fluorescence intensity, fluorescence competitive binding assay, OBP11","SfurOBP11; ligand concentration 14, replicate 3",31537
same,"Fluorescence intensity, fluorescence competitive binding assay, OBP11","SfurOBP11; ligand concentration 16, replicate 1",25150
same,"Fluorescence intensity, fluorescence competitive binding assay, OBP11","SfurOBP11; ligand concentration 16, replicate 2",28430
same,"Fluorescence intensity, fluorescence competitive binding assay, OBP11","SfurOBP11; ligand concentration 16, replicate 3",29261
same,"Fluorescence intensity, fluorescence competitive binding assay, OBP11","SfurOBP11; ligand concentration 18, replicate 1",33050
same,"Fluorescence intensity, fluorescence competitive binding assay, OBP11","SfurOBP11; ligand concentration 18, replicate 2",34724
same,"Fluorescence intensity, fluorescence competitive binding assay, OBP11","SfurOBP11; ligand concentration 18, replicate 3",33545
same,"Fluorescence intensity, fluorescence competitive binding assay, OBP11","SfurOBP11; ligand concentration 20, replicate 1",33953
same,"Fluorescence intensity, fluorescence competitive binding assay, OBP11","SfurOBP11; ligand concentration 20, replicate 2",35669
same,"Fluorescence intensity, fluorescence competitive binding assay, OBP11","SfurOBP11; ligand concentration 20, replicate 3",33542
same,"Fluorescence competitive binding assay, fluorescence intensity",SfurOBP1; ligand concentration 2 (μM),6022 and 9475 and 7407
same,"Fluorescence competitive binding assay, fluorescence intensity",SfurOBP1; ligand concentration 4 (μM),7163 and 8831 and 6832
same,"Fluorescence competitive binding assay, fluorescence intensity",SfurOBP1; ligand concentration 6 (μM),9235 and 7734 and 8738
same,"Fluorescence competitive binding assay, fluorescence intensity",SfurOBP1; ligand concentration 8 (μM),7490 and 9773 and 9402
same,"Fluorescence competitive binding assay, fluorescence intensity",SfurOBP1; ligand concentration 10 (μM),10034 and 9701 and 9801
same,"Fluorescence competitive binding assay, fluorescence intensity",SfurOBP1; ligand concentration 12 (μM),16511 and 14895 and 12657
same,"Fluorescence competitive binding assay, fluorescence intensity",SfurOBP1; ligand concentration 14 (μM),9553 and 12263 and 10210
same,"Fluorescence competitive binding assay, fluorescence intensity",SfurOBP1; ligand concentration 16 (μM),10515 and 10611 and 10617
same,"Fluorescence competitive binding assay, fluorescence intensity",SfurOBP1; ligand concentration 18 (μM),11876 and 13682 and 11119
same,"Fluorescence competitive binding assay, fluorescence intensity",SfurOBP1; ligand concentration 20 (μM),17922 and 11049 and 10258
same,IC50,"SfurOBP1; SfurOBP1, protein and 1-NPN both 2.0 µM, competitor 2-20 µM, read-out: IC50",> 20 µM
